Measurements: patent US9018411B2, “Bis-acylated hydroxylamine derivatives” (Cardioxyl Pharmaceuticals, Inc., priority 2009, dated 2015)

Tests used:
[1] = HNO production via N2O quantification (GC headspace analysis); format: physicochemical; conditions: 37° C. under argon, N2O relative to Angeli's salt; for % N2O DI: compound incubated in DI water; for % N2O pH 7.4: compound incubated in PBS buffer; for % N2O pH 10.3: compound incubated in pH 10.3 carbonate buffer
Method: (§1) Nitrous oxide is produced via the dimerization and dehydration of HNO, and is the most common marker for HNO production (Fukuto, J. M. et al., Chem. Res. Toxicol. 2005, 18, 790-801).
(§2) The ability of compounds to donate HNO is assessed. N2O results are reported relative to Angeli's salt. All decompositions are carried out at 37° C. under argon.

[2] = Decomposition of compound in PBS buffer, pH 7.4 determined by HPLC; format: physicochemical; conditions: 37° C. under argon; for half-life: read-out: approximate half-life (in parentheses in Decomp. Time column)
Method: as §2

esterase = assay: HNO production via N2O quantification in PBS buffer, pH 7.4 with added esterase; format: in vitro ADME; conditions: pH 7.4 with 2-4 mg added esterase, 37° C. under argon, N2O relative to Angeli's salt
Method: as §1, §2

SMILES	% N2O DI [1]	% N2O pH 7.4 [1]	Decomp. Time (time required for complete decomposition) [2]	% N2O esterase (esterase)	half-life [2]	% N2O pH 10.3 [1]
CC(C)(C)C(=O)ON(Cl)C(=O)C(C)(C)C [Compound 12, N-chloro-N-(trimethylacetyloxy)- trimethylacetamide]	37%	1%	<3 h			
CC(=O)ON(C(C)=O)S(=O)(=O)c1ccccc1Cl [Compound 20, N-(2-chlorobenzenesulfonyl)-N-acetyloxy-acetamide]		23%	<3 h			
CC(=O)ON(C(=O)OC(C)(C)C)S(=O)(=O)c1ccccc1Br [Compound 36, N-(2-bromobenzenesulfonyl)-N-acetyloxy-tert-butyl-carbamate]		7%	<2 h	67%		
CC(=O)ON(C(C)=O)S(=O)(=O)c1ccccc1Br [Compound 19, N-(2-bromobenzenesulfonyl)-N-acetyloxy-acetamide]		35%	< 2 h		~20 min	
CC(=O)ON(C(C)=O)S(=O)(=O)c1c(F)cc(F)cc1Br [Compound 21, N-(2-bromo-4,6-difluoro-benzenesulfonyl)-N-acetyloxy-acetamide]		39%	<3 h			
CC(=O)ON(C(=O)OCc1ccccc1)S(=O)(=O)c1c(Cl)cccc1Cl [Compound 29, N-(2,6-dichlorobenzenesulfonyl)-N-acetyloxy-benzyl-carbamate]		21%	<3 h	83%		52%
O=C(ON(Cl)C(=O)c1ccccc1)C(Cl)Cl [Compound 7, N-chloro-N-dichloroacetyloxy- benzamide]		7%	<3 h			
CCOC(=O)ON(Cl)C(=O)OCC [Compound 11, N-chloro-ethyl-carbonoxy-ethyl- carbamate]	31%	12%	<3 h			
CC(=O)ON(C(=O)OC(C)(C)C)S(=O)(=O)c1c(Cl)cccc1Cl [Compound 37, N-(2,6-dichlorobenzenesulfonyl)-N-acetyloxy-tert-butyl-carbamate]		4%	<3 h	85%		
CC(=O)ON(Cl)C(=O)C(C)(C)C [Compound 14, N-chloro-N-(acetyloxy)- trimethylacetamide]	48%	6%	<3 h			
CC(=O)ON(Br)C(C)=O [Compound 15, N-bromo-N-acetyloxy-acetamide]		7%	<3 h			
CC(C)(C)OC(=O)N(Cl)OC(=O)c1ccc([N+](=O)[O-])cc1 [Compound 13]	9%		<3 h			
CC(=O)ON(C(C)=O)S(=O)(=O)c1c(F)cccc1F [Compound 24, N-(2,6-difluorobenzenesulfonyl)-N-acetyloxy-acetamide]		23%	< 3 h		~30 min	
CC(=O)ON(C(C)=O)S(=O)(=O)c1ccc(Cl)cc1 [Compound 18, N-(4-chlorobenzenesulfonyl)-N-acetyloxy-acetamide]		4%	<3 h			
CC(=O)ON(C(=O)C(C)(C)C)S(=O)(=O)c1cc(Cl)ccc1Cl [Compound 31, N-(2,5-dichlorobenzenesulfonyl)-N-acetyloxy-trimethylacetamide]		5%	<20 h			
O=C(ON(Cl)C(=O)c1ccc(Cl)cc1)c1ccc(Cl)cc1 [Compound 2, N-chloro-N-(4-chlorobenzoyloxy)-4-chlorobenzamide]	32%	1%	<3 h			

SMILES	% N2O DI [1]	% N2O pH 7.4 [1]	Decomp. Time (time required for complete decomposition) [2]	% N2O esterase (esterase)	half-life [2]	% N2O pH 10.3 [1]
CC(=O)ON(C(C)=O)S(=O)(=O)c1c(Br)cccc1Br [Compound 22, N-(2,6-dibromobenzenesulfonyl)-N-acetyloxy-acetamide]		71%	< 2 h		~20 min	
CC(=O)ON(C(=O)C(C)(C)C)S(=O)(=O)c1ccccc1[N+](=O)[O-] [Compound 32, N-(2-nitrobenzenesulfonyl)-N-acetyloxy-trimethylacetamide]		0%	>20 h			
CC(=O)ON(C(=O)c1ccccc1)S(=O)(=O)c1c(Cl)cccc1Cl [Compound 28, N-(2,6-dichlorobenzenesulfonyl)-N-acetyloxy-benzamide]		17%	<3 h			44%
CC(=O)ON(C(=O)OC(C)(C)C)S(=O)(=O)c1c(Br)cccc1Br [Compound 38, N-(2,6-dibromobenzenesulfonyl)-N-acetyloxy-tert-butyl-carbamate]		3%	<3 h	73%		37%
CC(=O)ON(C(C)=O)S(=O)(=O)c1ccccc1[N+](=O)[O-] [Compound 25, N-(2-nitrobenzenesulfonyl)-N-acetyloxy-acetamide]		13%	<3 h			
CC(C)(C)OC(=O)N(OC(=O)c1ccc([N+](=O)[O-])cc1)S(=O)(=O)c1c(Cl)cccc1Cl [Compound 40]		0%	<3 h			
CC(=O)ON(C(=O)C(C)(C)C)S(=O)(=O)c1c(Cl)cccc1Cl [Compound 33, N-(2,6-dichlorobenzenesulfonyl)-N-acetyloxy-trimethylacetamide]		1%	<20 h			33%
CC(=O)ON(Cl)C(=O)OC(C)(C)C [Compound 10, N-chloro-N-acetyloxy-tert-butyl- carbamate]	98%	39%	<3 h			
CC(=O)ON(C(C)=O)S(=O)(=O)CCl [Compound 26, N-(chloromethylsulfonyl)-N- acetyloxy-acetamide]		13%	<3 h			
O=C(c1ccccc1)N(Cl)OC(=O)C(F)(F)F [Compound 8, N-chloro-N-(2,2,2-trifluoroacetoxy)benzamide]		2%	<3 h			
O=C(ON(Cl)C(=O)c1ccccc1)c1ccccc1 [Compound 1, N-chloro-N-benzoyloxy-benzamide]	29%	1%	<3 h			
CC(=O)ON(Cl)C(=O)c1ccccc1 [Compound 6, N-chloro-N-acetoxy-benzamide]		2%	<3 h			
CC(=O)ON(C(=O)C(Cl)Cl)S(=O)(=O)c1c(Cl)cccc1Cl [Compound 30, N-(2,6-dichlorobenzenesulfonyl)-N-acetyloxy-dichloroacetamide]		3%	<3 h			8%
CC(=O)ON(Cl)C(C)=O [Compound 9, N-chloro-N-acetyloxy-acetamide]	80%	15%	<3 h			
CC(=O)ON(C(C)=O)S(=O)(=O)c1c(Cl)cccc1Cl [Compound 23, N-(2,6-dichlorobenzenesulfonyl)-N-acetyloxy-acetamide]		56%	< 3 h	57%	~40 min	56%
CCOC(=O)N(OC(C)=O)S(=O)(=O)c1c(Cl)cccc1Cl [Compound 27]		57%	<3 h			
